The target of one experiment is T1, Human recombinant PTP1B (Homo sapiens, UniProt P18031).
T1 construct: made in house
T1 sequence (P18031 1-435): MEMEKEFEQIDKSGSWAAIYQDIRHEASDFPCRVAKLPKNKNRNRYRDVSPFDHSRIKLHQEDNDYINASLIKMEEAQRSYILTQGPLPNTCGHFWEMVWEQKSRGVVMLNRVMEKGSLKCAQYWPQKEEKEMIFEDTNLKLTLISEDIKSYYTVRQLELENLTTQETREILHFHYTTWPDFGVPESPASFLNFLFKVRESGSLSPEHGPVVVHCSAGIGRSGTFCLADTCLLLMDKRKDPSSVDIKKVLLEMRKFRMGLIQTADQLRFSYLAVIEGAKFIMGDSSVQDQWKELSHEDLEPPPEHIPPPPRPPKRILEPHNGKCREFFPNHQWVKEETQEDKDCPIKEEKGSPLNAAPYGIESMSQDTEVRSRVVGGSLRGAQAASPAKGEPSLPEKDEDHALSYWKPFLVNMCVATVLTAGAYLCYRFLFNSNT
In words: Inhibition of tri-phosphorylated insulin receptor dodecaphosphopeptide dephosphorylation by hPTP1B (malachite green-ammonium molybdate phosphate detection). It is filed as biochemical. The settings on record: substrate phosphotyrosyl dodecapeptide […] (insulin receptor 1142-1153), 37°C, 30 min, pH 7.4.

In the next experiment the test system is diabetic (ob/ob) mice. The experiment can be described thus: Blood glucose lowering activity in diabetic (ob/ob) mice. Type of experiment: in vivo. The following applies: Dose 25 mg/Kg, plasma glucose relative to vehicle treated mice, statistically (p < 0.05) significant. An excerpt:
The procedures used and results obtained are briefly described below.
The non-insulin dependent diabetic (NIDDM) syndrome can be typically characterizes by obesity, hyperglycemia, abnormal insulin secretion, hyperinsulinemia and insulin resistance.
In each test procedure, mice [Male or female ob/ob (C57 B1/6J) and their lean litermates (ob/+ or +/+, Jackson Laboratories) ages 2 to 5 months (10 to 65 g)] of a similar age were randomized according to body weight into 4 groups of 10 mice. The mice were housed 5 per cage and are maintained on normal rodent chow with water ad libitum. Mice received test compound daily by gavage (suspended in 0.5 ml of 0.5% methyl cellulose); dissolved in the drinking water; or admixed in the diet. The dose of compounds given ranges from 2.5 to 200 mg/kg body weight/day. The dose is calculated based on the fed weekly body weight and is expressed as active moiety. […] Control mice received vehicle only.
On the morning of Day 4, 7 or 14 two drops of blood (approximetly 50 ul) were collected into sodium fluoride containing tubes either from the tail vein or after decapitation. […] The plasma was isolated by centrifugation and the concentration of glucose is measured enzymatically on an Abbott V.P. Analyzer.
For each mouse, the percentage change in plasma glucose on Day 4, 7 or 14 is calculated relative to the mean plasma glucose of the vehicle treated mice. […]

This note sets out measurements from patent EP1077966B1, “BIPHENYL SULFONYL ARYL CARBOXYLIC ACIDS USEFUL IN THE TREATMENT OF INSULIN RESISTANCE AND HYPERGLYCEMIA” (Wyeth, priority 1998, dated 1999).

Marks after values point to notes of the source that are not given here.

By IC50 is commonly meant the concentration needed to halve the response being measured. For `O=C(O)c1cccc(S(=O)(=O)Oc2ccc(-c3ccc(-c4c(Cc5ccccc5)oc5ccccc45)cc3)cc2)c1` [Example 4, 3-[4'-(2-Benzyl-benzofuran-3-yl)-biphenyl-4-yloxysulfonyl]-benzoic acid], the IC50 on Human recombinant PTP1B was 106 nM. Same read-out and setting: with `O=C(O)c1ccc(S(=O)(=O)Oc2ccc(-c3ccc(-c4c(Cc5ccccc5)oc5ccccc45)cc3)cc2)cc1` [Example 3, 4-[4'-(2-Benzyl-benzofuran-3-yl)-biphenyl-4-yloxysulfonyl]-benzoic acid] the figure was 75 nM. Still for that read-out and setting: with `O=C(O)c1ccc(S(=O)(=O)Oc2ccc(-c3ccc(-c4c(Cc5ccccc5)sc5ccccc45)cc3)cc2)cc1O` [Example 11, 4-[4'-(2-Benzyl-benzo[b]thiophen-3-yl)-biphenyl-4-yloxysulfonyl]-2-hydroxy-benzoic acid] the figure was 28 nM; with `O=C(O)c1ccc(S(=O)(=O)Oc2ccc(-c3ccc(-c4c(Cc5ccccc5)oc5ccccc45)cc3)cc2[N+](=O)[O-])cc1O` [Example 7, 4-[4'-(2-Benzyl-benzofuran-3-yl)-3-nitro-biphenyl-4-yloxysulfonyl]-2-hydroxy-benzoic acid], 29 nM. Turning to `O=C(O)c1ccc(S(=O)(=O)Oc2ccc(-c3ccc(-c4c(Cc5ccccc5)sc5ccccc45)cc3)cc2Br)cc1O` [Example 12, 4-[4'-(2-Benzyl-benzo[b]thiophen-3-yl)-3-bromo-biphenyl-4-yloxysulfonyl]-2-hydroxy-benzoic acid], the half-maximal inhibitory concentration (IC50) at Human recombinant PTP1B worked out at 24 nM.

On to `O=C(O)c1ccc(S(=O)(=O)Oc2ccc(-c3ccc(-c4c(C(=O)c5ccccc5)oc5ccccc45)cc3)cc2C2CCCC2)cc1O` [Example 9, 4-[4'-(2-Benzoyl-benzofuran-3-yl)-3-cyclopentyl-biphenyl-4-yloxysulfonyl]-2-hydroxy-benzoic acid], for which the IC50 on Human recombinant PTP1B was 40 nM. Same read-out and setting: the same measure for `Cc1sc(Cc2ccccc2)c(-c2ccc(-c3ccc(OS(=O)(=O)c4ccc(C(=O)O)c(O)c4)cc3)cc2)c1C` [Example 10, 4-[4'-(2-Benzyl-4,5-dimethyl-thiophen-3-yl)-biphenyl-4-yloxysulfonyl]-2-hydroxy-benzoic acid]: 32 nM. The same measure, in the same setting: the same measure for `O=C(O)c1ccc(S(=O)(=O)Oc2ccc(-c3ccc(-c4c(Cc5ccccc5)oc5ccccc45)cc3)cc2)cc1O` [Example 1, 4-[4'-(2-Benzyl-benzofuran-3-yl)-biphenyl-4-yloxysulfonyl]-2-hydroxy-benzoic acid]: 39 nM.

For `O=C(O)c1ccc(S(=O)(=O)Oc2ccc(-c3ccc(-c4coc5ccccc45)cc3)cc2)cc1O` [Example 5], the 50% inhibitory concentration (IC50) on Human recombinant PTP1B amounted to 354 nM. `Cc1cc(-c2ccc(-c3c(Cc4ccccc4)oc4ccccc34)cc2)cc(C)c1OS(=O)(=O)c1ccc(C(=O)O)c(O)c1` [Example 6, 4-[4'-(2-Benzyl-benzofuran-3-yl)-3,5-dimethyl-biphenyl-4-yloxysulfonyl]-2-hydroxy-benzoic acid]: the IC50 on Human recombinant PTP1B came to 34 nM. For `O=C(O)c1ccc(S(=O)(=O)Oc2c(Br)cc(-c3ccc(-c4c(Cc5ccccc5)sc5ccccc45)cc3)cc2Br)cc1O` [Example 13, 4-[4'-(2-Benzyl-benzo[b]thiophen-3-yl)-3,5-dibromo-biphenyl-4-yloxysulfonyl]-2-hydroxy-benzoic acid], the “% Change Glucose from Vehicle” value with diabetic (ob/ob) mice was -24.6^a %. At Human recombinant PTP1B, the IC50 came to 30 nM. Turning to `O=C(O)c1cc(S(=O)(=O)Oc2ccc(-c3ccc(-c4c(Cc5ccccc5)oc5ccccc45)cc3)cc2)ccc1O` [Example 2, 5-[4'-(2-Benzyl-benzofuran-3-yl)-biphenyl-4-yloxysulfonyl]-2-hydroxy-benzoic acid], the 50% inhibitory concentration (IC50) on Human recombinant PTP1B turned out to be 26 nM. Regarding `O=C(O)c1ccc(S(=O)(=O)Oc2ccc(-c3ccc(-c4c(C(=O)c5ccccc5)oc5ccccc45)cc3)cc2[N+](=O)[O-])cc1O` [Example 8, 4-[4'-(2-Benzoyl-benzofuran-3-yl)-3-nitro-biphenyl-4-yloxysulfonyl]-2-hydroxy-benzoic acid], the IC50 at Human recombinant PTP1B came to 178 nM.
